Key:
Format in all cases: ADME, organism-based
Conditions in all cases: in vivo
[1] = Half life in rat at 2 mg/kg, po
[2] = AUC in rat at 2 mg/kg, po
[3] = Cmax in rat at 2 mg/kg, po; parameters: dose 2 mg/kg, route oral
[4] = Oral bioavailability in rat at 2 mg/kg
[5] = Half life in rat at 1 mg/kg, iv
[6] = Clearance in rat at 1 mg/kg, iv
[7] = AUC(0 to infinity) in mouse at 30 mg/kg, po; parameters: dose 30 mg/kg, route oral, time infinity
[8] = Volume of distribution in rat at 1 mg/kg, iv
[9] = Half life in mouse at 30 mg/kg, po

SMILES | half-life [1] [h] | AUC [2] [ng·h/mL] | Cmax [3] [ng/mL] | bioavailability [4] [%] | half-life [5] [h] | clearance [6] [mL/min/kg] | AUC(0-inf) [7] [ng·h/mL] | Vd [8] [L/kg] | half-life [9] [h]
O=C(N[C@H]1COc2ccccc2NC1=O)c1cc(Cc2ccccc2)on1 | 2.9 | 2200 | 810 |  |  |  |  |  | 
CN1C(=O)[C@@H](NC(=O)c2cc(Cc3ccccc3)on2)CNc2ccccc21 | 1.9 |  |  | 75 | 0.85 | 57 | 2000 | 2.2 | 1.5

Reference: ChEMBL document CHEMBL3785028 (J Med Chem, 2016)
